Results taken from patent US8202879B2, “Quinazoline derivatives having tyrosine kinase inhibitory activity” (Shionogi & Co., Ltd., priority 2005, dated 2012).
Read-outs that look alike come from different tables or passages of the source. Values belong to the molecule of their own block, whether it stands above or below them.

What was measured:
HER2 = molecular target: T1, HER2 (Homo sapiens, UniProt P04626); experiment: Enzyme inhibitory activity on HER2 (time resolution fluorescence, biotinylated poly-Glu-Tyr substrate); assay type: biochemical
T1 construct: purchased Carna Biosciences, Inc; host or cells: insect cell expression system
T1 sequence (P04626 23-1255): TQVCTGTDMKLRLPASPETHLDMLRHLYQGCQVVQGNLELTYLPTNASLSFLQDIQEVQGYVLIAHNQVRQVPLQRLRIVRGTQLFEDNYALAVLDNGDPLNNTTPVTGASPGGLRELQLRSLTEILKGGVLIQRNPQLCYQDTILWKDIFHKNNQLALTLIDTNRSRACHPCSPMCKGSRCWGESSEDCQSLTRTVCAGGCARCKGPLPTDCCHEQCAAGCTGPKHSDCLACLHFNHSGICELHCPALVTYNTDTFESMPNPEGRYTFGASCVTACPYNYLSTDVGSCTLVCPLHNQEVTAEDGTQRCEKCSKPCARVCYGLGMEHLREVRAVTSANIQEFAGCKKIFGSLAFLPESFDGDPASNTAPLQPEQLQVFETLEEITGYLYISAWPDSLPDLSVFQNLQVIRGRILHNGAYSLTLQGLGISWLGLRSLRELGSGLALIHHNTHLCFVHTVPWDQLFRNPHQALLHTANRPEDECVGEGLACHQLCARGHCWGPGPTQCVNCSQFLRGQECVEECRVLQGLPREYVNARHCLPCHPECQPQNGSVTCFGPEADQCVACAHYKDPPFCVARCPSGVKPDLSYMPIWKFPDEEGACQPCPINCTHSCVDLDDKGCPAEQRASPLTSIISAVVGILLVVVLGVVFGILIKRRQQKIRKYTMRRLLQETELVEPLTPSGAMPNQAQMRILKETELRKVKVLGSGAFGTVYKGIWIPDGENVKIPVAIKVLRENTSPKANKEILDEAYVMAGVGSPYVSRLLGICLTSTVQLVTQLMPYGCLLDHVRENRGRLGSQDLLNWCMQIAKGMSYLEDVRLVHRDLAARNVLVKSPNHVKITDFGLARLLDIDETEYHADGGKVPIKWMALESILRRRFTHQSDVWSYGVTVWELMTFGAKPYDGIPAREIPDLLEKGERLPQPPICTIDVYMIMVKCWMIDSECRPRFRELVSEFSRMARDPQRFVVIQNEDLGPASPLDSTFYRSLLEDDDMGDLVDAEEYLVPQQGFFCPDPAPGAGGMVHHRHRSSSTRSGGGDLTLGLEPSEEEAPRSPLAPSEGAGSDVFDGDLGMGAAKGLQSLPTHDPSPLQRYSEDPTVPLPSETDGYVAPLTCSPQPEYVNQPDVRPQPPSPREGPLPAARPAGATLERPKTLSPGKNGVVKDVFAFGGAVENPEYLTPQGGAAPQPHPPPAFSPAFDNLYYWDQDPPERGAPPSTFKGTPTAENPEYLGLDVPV
How it was run: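 Insect-cell-expressed HER2 (1000 ng/ml working stock) with biotinylated poly-Glu-Tyr (4:1; 3.125 μg/ml stock) and ATP (290 μM solution) in TBS with MgCl2, MnCl2, Na3VO4 and BSA, 60 min at room temperature. 10-point 4-fold dilutions from a 1 mM top solution. Phosphotyrosine detected by TR-FRET with Eu-antibody and streptavidin-XL.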

EGFR = molecular target: T2, EGFR (Homo sapiens, UniProt P00533); experiment: Enzyme inhibitory activity on EGFR (time resolution fluorescence, biotinylated poly-Glu-Tyr substrate); assay type: biochemical
T2 construct: purchased Carna Biosciences, Inc; host or cells: insect cell expression system
T2 sequence (P00533 25-1210): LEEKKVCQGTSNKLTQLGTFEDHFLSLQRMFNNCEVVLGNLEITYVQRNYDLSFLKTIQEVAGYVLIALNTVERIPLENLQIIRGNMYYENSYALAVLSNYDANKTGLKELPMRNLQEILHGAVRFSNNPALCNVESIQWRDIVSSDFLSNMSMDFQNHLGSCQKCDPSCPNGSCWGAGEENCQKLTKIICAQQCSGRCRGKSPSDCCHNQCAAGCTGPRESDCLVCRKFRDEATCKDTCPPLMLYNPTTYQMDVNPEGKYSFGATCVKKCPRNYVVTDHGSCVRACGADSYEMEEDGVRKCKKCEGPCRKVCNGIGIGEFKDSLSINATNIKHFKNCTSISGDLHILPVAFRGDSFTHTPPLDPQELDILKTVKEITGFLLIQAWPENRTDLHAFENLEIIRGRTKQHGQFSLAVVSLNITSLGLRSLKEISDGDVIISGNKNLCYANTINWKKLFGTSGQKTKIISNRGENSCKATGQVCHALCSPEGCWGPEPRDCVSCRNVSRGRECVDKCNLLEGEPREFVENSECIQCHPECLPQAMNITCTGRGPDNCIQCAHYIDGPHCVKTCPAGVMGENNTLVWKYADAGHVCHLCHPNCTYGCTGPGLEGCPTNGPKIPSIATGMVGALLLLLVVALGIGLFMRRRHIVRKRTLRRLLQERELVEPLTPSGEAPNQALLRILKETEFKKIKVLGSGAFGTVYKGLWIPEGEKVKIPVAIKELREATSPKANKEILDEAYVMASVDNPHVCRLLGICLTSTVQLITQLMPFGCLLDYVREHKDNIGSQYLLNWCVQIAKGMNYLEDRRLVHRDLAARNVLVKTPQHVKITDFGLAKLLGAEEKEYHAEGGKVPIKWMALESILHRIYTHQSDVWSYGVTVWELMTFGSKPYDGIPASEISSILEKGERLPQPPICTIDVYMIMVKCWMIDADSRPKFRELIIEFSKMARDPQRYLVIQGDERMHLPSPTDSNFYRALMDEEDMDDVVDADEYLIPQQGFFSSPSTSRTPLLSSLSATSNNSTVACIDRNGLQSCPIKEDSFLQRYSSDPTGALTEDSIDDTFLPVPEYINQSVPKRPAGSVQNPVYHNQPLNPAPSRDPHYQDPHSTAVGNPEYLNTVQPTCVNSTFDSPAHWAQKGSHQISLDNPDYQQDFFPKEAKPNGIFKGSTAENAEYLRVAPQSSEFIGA
How it was run: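 Insect-cell-expressed EGFR phosphorylated biotinylated poly-Glu-Tyr (4:1) for 60 min at room temperature in TBS with MgCl2, MnCl2, Na3VO4 and BSA. Enzyme 250 ng/ml, substrate 3.125 μg/ml and ATP 125 μM as working solutions. EDTA stop; Eu anti-phosphotyrosine/streptavidin-XL time-resolved fluorescence read; 10-point 4-fold dilutions.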

BT-474 = experiment: In vitro cell proliferation inhibition, WST assay; assay type: cell-based, human; conditions: BT-474 cells, cultured for 3 days, read-out: BT-474 (nM) proliferation inhibitory activity (IC50 value)
Method: Test of In Vitro Cell Proliferation Inhibition of Test Compound
As a human-derived cancer cell strain, BT-474 was used. Cells were all cultured in a 37° C., 5% CO2 incubator in a medium in which 10% bovine fetal serum (ICN) and 50 units ml penicillin/60 μg/ml streptomycin solution (GIBCO) were added to Dulbecco's Modified Essential Medium (DMEM, Nacalai Tesque, Inc).

[1] = enzyme reaction at room temperature for 60 minutes
[2] = HER2 purified from insect cell expression system, ATP solution 290 μM, room temperature, 60 minutes
[3] = EGFR purified from insect cell expression system, ATP solution 125 μM, room temperature, 60 minutes

IC50 (HER2; [1]): 30 nM | IC50 (EGFR; [1]): 20 nM | IC50 (BT-474; Homo sapiens, BT-474, 72 h): 40 nM
SMILES: CC#C/C(=N\OCCNC[C@H]1CCCO1)c1ccc2ncnc(Nc3ccc4c(cnn4Cc4cccc(F)c4)c3)c2c1 [VIII-188]

IC50 (HER2; [1]): 28 nM | IC50 (EGFR; [1]): 25 nM | IC50 (BT-474; Homo sapiens, BT-474, 72 h): 14 nM
SMILES: CC#C/C(=N\OC[C@H]1CN(CCO)CCN1)c1ccc2ncnc(Nc3ccc(OCc4ccccn4)c(Cl)c3)c2c1 [VIII-174]

IC50 (HER2; [1]): 8.1 nM | IC50 (EGFR; [1]): 7.6 nM | IC50 (BT-474; Homo sapiens, BT-474, 72 h): 28 nM
SMILES: CC#C/C(=N\OCCNCCOC(N)=O)c1ccc2ncnc(Nc3ccc(OCc4ccccn4)c(Cl)c3)c2c1 [VIII-135]

IC50 (HER2; [1]): 10 nM | IC50 (EGFR; [1]): 20 nM | IC50 (BT-474; Homo sapiens, BT-474, 72 h): 5 nM
SMILES: CC#C/C(=N\OCC(=O)NCCN(C)C)c1ccc2ncnc(Nc3ccc(OCc4cccc(F)c4)c(Cl)c3)c2c1 [VIII-226]

IC50 (HER2; [1]): 11 nM | IC50 (EGFR; [1]): 12 nM | IC50 (BT-474; Homo sapiens, BT-474, 72 h): 30 nM
SMILES: CC#C/C(=N\OCCN1CCC[C@@H]1CO)c1ccc2ncnc(Nc3ccc(OCc4ccccn4)c(Cl)c3)c2c1 [VIII-150]

IC50 (HER2; [1]): 26 nM | IC50 (EGFR; [1]): 23 nM | IC50 (BT-474; Homo sapiens, BT-474, 72 h): 26 nM
SMILES: CC#C/C(=N\OC[C@H]1CN(C)CCN1)c1ccc2ncnc(Nc3ccc(OCc4ccccn4)c(Cl)c3)c2c1 [VIII-176]

IC50 (HER2; [1]): 449 nM | IC50 (EGFR; [1]): 263 nM | IC50 (BT-474; Homo sapiens, BT-474, 72 h): 23 nM
SMILES: CC#C/C(=N\OCC1COCCN1)c1ccc2ncnc(Nc3ccc(COc4cccc(F)c4)c(Cl)c3)c2c1 (stereo not drawn) [VIII-220]

IC50 (HER2; [1]): 4.4 nM | IC50 (EGFR; [1]): 5.5 nM | IC50 (BT-474; Homo sapiens, BT-474, 72 h): 31 nM
SMILES: CC#C/C(=N\OCCNC1CCN(S(C)(=O)=O)CC1)c1ccc2ncnc(Nc3ccc(OCc4ccccn4)c(Cl)c3)c2c1 [VIII-142]

IC50 (HER2; [1]): 27 nM | IC50 (EGFR; [1]): 23 nM | IC50 (BT-474; Homo sapiens, BT-474, 72 h): 38 nM
SMILES: CC#C/C(=N\OCCN1CCOCC1)c1ccc2ncnc(Nc3ccc(OCc4ccccn4)c(Cl)c3)c2c1 [VIII-163]

Second part, the molecule before the results:

SMILES: CC#C/C(=N\OCCNC[C@H](C)CO)c1ccc2ncnc(Nc3ccc(OCc4cccc(F)c4)c(Cl)c3)c2c1 [VIII-63]
IC50 (HER2; [2]): 9.2 nM | IC50 (EGFR; [3]): 9.6 nM | IC50 (BT-474; Homo sapiens, BT-474, 72 h): 13 nM

SMILES: CC#C/C(=N\OC[C@H]1CCCN1CC#N)c1ccc2ncnc(Nc3ccc(OCc4cccc(F)c4)c(Cl)c3)c2c1 [VIII-86]
IC50 (HER2; [2]): 304 nM | IC50 (EGFR; [3]): 244 nM | IC50 (BT-474; Homo sapiens, BT-474, 72 h): 13 nM

SMILES: CC#CC(=NOCC(C)N)c1ccc2ncnc(Nc3ccc(OCc4cccc(F)c4)c(Cl)c3)c2c1 (stereo not drawn) [VIII-40]
IC50 (HER2; [2]): 19.2 nM | IC50 (EGFR; [3]): 9.3 nM | IC50 (BT-474): 9 nM

SMILES: CC#C/C(=N\OCCN1CCC(O)CC1)c1ccc2ncnc(Nc3ccc(OCc4cccc(F)c4)c(Cl)c3)c2c1 [VIII-97]
IC50 (HER2; [2]): 22 nM | IC50 (EGFR; [3]): 19 nM | IC50 (BT-474): 11 nM

SMILES: CC#C/C(=N\OCCNC[C@@H]1COC(=O)N1)c1ccc2ncnc(Nc3ccc(OCc4cccc(F)c4)c(Cl)c3)c2c1 [VIII-59]
IC50 (HER2; [2]): 278 nM | IC50 (EGFR; [3]): 115 nM | IC50 (BT-474): 11 nM

SMILES: CNCCO/N=C(\C#CCO)c1ccc2ncnc(Nc3ccc(OCc4cccc(F)c4)c(Cl)c3)c2c1 [VIII-121]
IC50 (HER2; [2]): 18 nM | IC50 (EGFR; [3]): 17 nM | IC50 (BT-474): 10 nM

SMILES: CC#C/C(=N\OC[C@@H]1C[C@@H](NC(C)=O)CN1)c1ccc2ncnc(Nc3ccc(OCc4cccc(F)c4)c(Cl)c3)c2c1 [VIII-84]
IC50 (HER2; [2]): 47 nM | IC50 (EGFR; [3]): 44 nM | IC50 (BT-474): 28 nM

SMILES: CC#C/C(=N\OCCN1CCS(=O)(=O)CC1)c1ccc2ncnc(Nc3ccc(OCc4cccc(F)c4)c(Cl)c3)c2c1 [VIII-95]
IC50 (HER2; [2]): 176 nM | IC50 (EGFR; [3]): 209 nM | IC50 (BT-474): 25 nM

SMILES: CC#C/C(=N\OCCNC)c1ccc2ncnc(Nc3ccc(OCc4cccc(F)c4)c(Cl)c3)c2c1 [VIII-27]
IC50 (HER2; [2]): 43 nM | IC50 (EGFR; [3]): 33 nM | IC50 (BT-474): 13 nM

SMILES: CC#C/C(=N\OCCN1CC[C@@H](OC(N)=O)C1)c1ccc2ncnc(Nc3ccc(OCc4cccc(F)c4)c(Cl)c3)c2c1 [VIII-71]
IC50 (HER2; [2]): 199 nM | IC50 (EGFR; [3]): 130 nM | IC50 (BT-474; Homo sapiens, BT-474, 72 h): 17 nM
